Results from patent US10729738B2, “Hindered disulfide drug conjugates” (priority 2015, dated 2020).
Where a SMILES comes first, the peptide text is derived from it. [ ]: non-standard residue; d: D form. The star is where a group is joined. X14 = CC(C)(COC(=O)*)SSc1nc2cc([N+](=O)[O-])ccc2[nH]1; Dolaproine = CO[C@@H]([C@@H]1CCCN1)[C@@H](C)C(=O)O; X22 = CC(C)(COC(=O)*)SSc1nc2cccc(C(=O)O)c2[nH]1; Dil = CC[C@H](C)[C@H](NC)[C@@H](CC(=O)O)OC; X16 = CN(C)C(=O)c1cnccc1SSC(C)(C)COC(=O)*; X12 = Cn1c(C(=O)O)cnc1SSC(C)(C)COC(=O)*; X13 = CC(C)(COC(=O)*)SSc1nc2cnccc2[nH]1; X17 = Cn1c(SSC(C)(C)COC(=O)*)nc2ccccc21; X19 = Cn1cc(C(=O)O)nc1SSC(C)(C)COC(=O)*; X2 = C[C@@H](N*)[C@@H](O)c1ccccc1; X21 = CC(C)(COC(=O)*)SSc1ncc[nH]1; X20 = Cn1cnnc1SSC(C)(C)COC(=O)*; X18 = CC(C)(COC(=O)*)SSC(=N)N; NMeV = CN[C@H](C(=O)O)C(C)C

Legend:
[1] = target: human serum albumin Cys-34 (Homo sapiens, UniProt P02768); assay: Conjugation of activated disulfide-MMAE molecules to human serum albumin (Conjugate Ratio, LC/MS); conditions: disulfide MMAE compound at 10 molar equivalents relative to HSA, 75 mM Tris pH 8.5, ~16 hours at room temperature
Chain of human serum albumin Cys-34 (P02768 25-609): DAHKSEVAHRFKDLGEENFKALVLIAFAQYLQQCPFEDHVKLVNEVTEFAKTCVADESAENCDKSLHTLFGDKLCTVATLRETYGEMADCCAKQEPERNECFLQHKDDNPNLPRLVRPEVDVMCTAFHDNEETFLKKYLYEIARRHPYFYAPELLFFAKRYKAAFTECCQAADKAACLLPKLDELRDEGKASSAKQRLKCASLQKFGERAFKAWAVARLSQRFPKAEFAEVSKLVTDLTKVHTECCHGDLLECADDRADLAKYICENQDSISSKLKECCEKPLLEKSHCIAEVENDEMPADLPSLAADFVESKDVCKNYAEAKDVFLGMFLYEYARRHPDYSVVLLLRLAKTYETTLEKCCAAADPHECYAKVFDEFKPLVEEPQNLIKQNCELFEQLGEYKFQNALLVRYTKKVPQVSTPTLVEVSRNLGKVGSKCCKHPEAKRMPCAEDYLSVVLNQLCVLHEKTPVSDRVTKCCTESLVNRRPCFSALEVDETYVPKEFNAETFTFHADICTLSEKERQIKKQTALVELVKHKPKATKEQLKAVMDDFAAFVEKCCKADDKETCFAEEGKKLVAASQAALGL
Description: In a first evaluation, MMAE was conjugated to human serum albumin (HSA). […] This Cys residue is blocked as a mixed disulfide with Cys or glutathione, preventing complete conjugation of other molecules to this residue. […] Conjugate reactions were analyzed by LC/MS. The extent of the expected MMAE-HSA conjugate formed during the reaction is represented by the “Conjugate Ratio”, measured by dividing the abundance of the MS peak for the MMAE-HSA conjugate by the sum total abundance of all peaks observed. The ideal value for the Conjugate Ratio is 1.0. The results are reported in table 31 below wherein the wavy line for the leaving group represents the point of attachment to the disulfide bond, and “HSA CR” refers to human serum albumin conjugate ratio.

[2] = target: T1, penetratin (AntP) peptide (Drosophila melanogaster, UniProt P02833); assay: Conjugation of activated disulfide-MMAE molecules to penetratin (AntP) peptide (% Product); conditions: peptide 25 uM, disulfide MMAE 5 equivalents, 75 mM Tris pH 8.5 and 10% DMF, ~16 hours at room temperature, UV peak area
T1 construct: C-terminal amide (CONH2); made in house; host or cells: chemical synthesis (Fmoc solid-phase peptide synthesis)
Description: In a second evaluation, MMAE was conjugated to penetratin (AntP) peptide. The AntP peptide, with sequence H2N-[…]-CONH2 (SEQ ID NO:1) bearing a free Cys thiol at the C-terminus, was synthesized via standard Fmoc solid-phase peptide synthesis methods. This peptide was conjugated at a concentration of 25 uM to disulfide MMAE molecules with varying leaving groups (5 equivalents) in a buffered solution composed of 75 mM Tris, pH 8.5 and 10% DMF for ˜16 hours at room temperature. Extent of the reaction was measured by dividing the integrated area for the UV peak of the MMAE-AntP conjugate by the sum of all peaks (“% Product”). The ideal value for % Product is 100%. The results are reported in table 31 below wherein the wavy line for the leaving group represent the point of attachment to the disulfide bond, and “AntP % P” refers to penetratin (AntP) peptide % product.

Structure (SMILES)	HAS CR (HSA Conjugation Ratio) [1]	AntP % P (penetratin (AntP) peptide % product) [2]	pKa (pKa of thiol compounds)
CC[C@H](C)[C@@H]([C@@H](CC(=O)N1CCC[C@H]1[C@H](OC)[C@@H](C)C(=O)N[C@H](C)[C@@H](O)c1ccccc1)OC)N(C)C(=O)[C@@H](NC(=O)[C@H](C(C)C)N(C)C(=O)OCC(C)(C)SSc1ncc(C(=O)O)n1C)C(C)C (X12-[NMeV]V[Dil][Dolaproine]-X2)	0.55	4%	
CC[C@H](C)[C@@H]([C@@H](CC(=O)N1CCC[C@H]1[C@H](OC)[C@@H](C)C(=O)N[C@H](C)[C@@H](O)c1ccccc1)OC)N(C)C(=O)[C@@H](NC(=O)[C@H](C(C)C)N(C)C(=O)OCC(C)(C)SSc1nc2cnccc2[nH]1)C(C)C (X13-[NMeV]V[Dil][Dolaproine]-X2)	0.86	26%	
CC[C@H](C)[C@@H]([C@@H](CC(=O)N1CCC[C@H]1[C@H](OC)[C@@H](C)C(=O)N[C@H](C)[C@@H](O)c1ccccc1)OC)N(C)C(=O)[C@@H](NC(=O)[C@H](C(C)C)N(C)C(=O)OCC(C)(C)SSc1nc2cc([N+](=O)[O-])ccc2[nH]1)C(C)C (X14-[NMeV]V[Dil][Dolaproine]-X2)	0.69	26%	
CC[C@H](C)[C@@H]([C@@H](CC(=O)N1CCC[C@H]1[C@H](OC)[C@@H](C)C(=O)N[C@H](C)[C@@H](O)c1ccccc1)OC)N(C)C(=O)[C@@H](NC(=O)[C@H](C(C)C)N(C)C(=O)OCC(C)(C)SSc1ccncc1C(=O)N(C)C)C(C)C (X16-[NMeV]V[Dil][Dolaproine]-X2)	0.22	51%	
CC[C@H](C)[C@@H]([C@@H](CC(=O)N1CCC[C@H]1[C@H](OC)[C@@H](C)C(=O)N[C@H](C)[C@@H](O)c1ccccc1)OC)N(C)C(=O)[C@@H](NC(=O)[C@H](C(C)C)N(C)C(=O)OCC(C)(C)SSc1nc2ccccc2n1C)C(C)C (X17-[NMeV]V[Dil][Dolaproine]-X2)	0.87	7.5%	
CC[C@H](C)[C@@H]([C@@H](CC(=O)N1CCC[C@H]1[C@H](OC)[C@@H](C)C(=O)N[C@H](C)[C@@H](O)c1ccccc1)OC)N(C)C(=O)[C@@H](NC(=O)[C@H](C(C)C)N(C)C(=O)OCC(C)(C)SSC(=N)N)C(C)C (X18-[NMeV]V[Dil][Dolaproine]-X2)	0.98	90%	
CC[C@H](C)[C@@H]([C@@H](CC(=O)N1CCC[C@H]1[C@H](OC)[C@@H](C)C(=O)N[C@H](C)[C@@H](O)c1ccccc1)OC)N(C)C(=O)[C@@H](NC(=O)[C@H](C(C)C)N(C)C(=O)OCC(C)(C)SSc1nc(C(=O)O)cn1C)C(C)C (X19-[NMeV]V[Dil][Dolaproine]-X2)	0.38	4.9%	
CC[C@H](C)[C@@H]([C@@H](CC(=O)N1CCC[C@H]1[C@H](OC)[C@@H](C)C(=O)N[C@H](C)[C@@H](O)c1ccccc1)OC)N(C)C(=O)[C@@H](NC(=O)[C@H](C(C)C)N(C)C(=O)OCC(C)(C)SSc1nncn1C)C(C)C (X20-[NMeV]V[Dil][Dolaproine]-X2)	0.66	17%	
CC[C@H](C)[C@@H]([C@@H](CC(=O)N1CCC[C@H]1[C@H](OC)[C@@H](C)C(=O)N[C@H](C)[C@@H](O)c1ccccc1)OC)N(C)C(=O)[C@@H](NC(=O)[C@H](C(C)C)N(C)C(=O)OCC(C)(C)SSc1ncc[nH]1)C(C)C (X21-[NMeV]V[Dil][Dolaproine]-X2)	0.99	1.7%	
CC[C@H](C)[C@@H]([C@@H](CC(=O)N1CCC[C@H]1[C@H](OC)[C@@H](C)C(=O)N[C@H](C)[C@@H](O)c1ccccc1)OC)N(C)C(=O)[C@@H](NC(=O)[C@H](C(C)C)N(C)C(=O)OCC(C)(C)SSc1nc2cccc(C(=O)O)c2[nH]1)C(C)C (X22-[NMeV]V[Dil][Dolaproine]-X2)	0.34	25%	
O=[N+]([O-])c1ccc(S)nc1 [Compound 5, para-nitropyridyl thiol]			4.7 to 4.8
